Tested on: white rats
Assay: Adaptogenic (antistress) properties, shaker-induced transport stress
Assay type: in vivo
Description: Tests were conducted on 84 white rats and 36 white mice using pharmacological, haematological, biochemical and immunologic assays known in the art. Upon studying beneficial effects of composition A on the organisms of laboratory animals, certain haematological and immunobiological indices of the test and control animals were considered. Haematological parameters were evaluated in blood specimens by methods known in the art: white blood cells count per 1 cubic millimeter using Gorjaev's chamber. The following immunobiological indices were counted: blood protein content, glucose, phagocytosis and a number of other parameters, characterizing condition of an organism. The total protein content in blood serum was measured by refractometric analysis. Refractive index of blood serum depends mainly on the amount of proteins.
Glucose concentration was measured using the ortho-toluidine method based on staining of glucose compound with ortho-toluidine in acetic acid solution, the intensity of said being proportional to the glucose concentration.
The test was conducted on 12 rats, 4 animals being in each of three groups. Stress in experimental white rats was induced using a shaking machine simulating transport (physical) stress. The box with animals was placed onto the shaker and held atop the operating machine for 30-40 min. The most informative parameters, characterizing the onset and development of stress response (stress mediators): glucose, total protein and leukocytes (WBC) levels, were measured in blood of the white rats.
Composition A was administered to the animals of the 1st group intramuscularly 3 days previous to stress induction in a dose of 0.2 ml. 2.5% solution of neuroleptic agent aminazin in a dose of 0.5 mg per capita was administered to the animals of the 2nd group. A normal saline solution was administered intramuscularly to the animals of the 3rd (control) group. Rats' blood examination to estimate the above parameters was performed 1 h and 24 h after stress induction.

[1] = 24 hours after stress induction

## CN(C)CCCN1c2ccccc2Sc2ccc(Cl)cc21 [Aminazin, aminazin]
1 hour after stress induction
  Glucose: 6.46 ± 0.45 mmol/L
  Leukocytes (WBC): 4.3 ± 0.4 10^3/uL
  Total protein: 66.0 ± 0.5 g/L
1 hour after stress induction, listed as aminazin
  Glucose: 6.46 ± 0.45 mmol/L
[1]
  Glucose: 6.25 ± 0.3 mmol/L
  Leukocytes (WBC): 6.1 ± 0.3 10^3/uL
  Total protein: 72.4 ± 1.6 g/L
24 hours after stress induction, listed as aminazin
  Glucose: 6.25 ± 0.3 mmol/L

Reference: patent publication US9744196B2, “Composition for parenteral administration, method for producing and method use thereof” (N2 PHARMACEUTICALS LTD, priority 2013, dated 2017)
